# From patent US20210253628A1, “COMPOUNDS, COMPOSITIONS, AND METHODS FOR TREATMENT OF ANDROGEN-MEDIATED DISEASE” (The Regents of the University of California, priority 2018, published 2021)
# “Also recorded” adds a separate entry of the source.
# Legend:
# STS = molecular target: T1, STS (Homo sapiens, UniProt P08842); experiment: STS enzymatic activity in VCaP cells (4-Methylumbelliferyl sulfate microtiter plate cellular assay, fluorescence readout); assay type: cell-based
# T1 construct: A VCaP tumor model that expresses endogenous STS was employed; endogenous in cells; host or cells: VCaP prostate cancer cells
# T1 sequence (P08842 22-583): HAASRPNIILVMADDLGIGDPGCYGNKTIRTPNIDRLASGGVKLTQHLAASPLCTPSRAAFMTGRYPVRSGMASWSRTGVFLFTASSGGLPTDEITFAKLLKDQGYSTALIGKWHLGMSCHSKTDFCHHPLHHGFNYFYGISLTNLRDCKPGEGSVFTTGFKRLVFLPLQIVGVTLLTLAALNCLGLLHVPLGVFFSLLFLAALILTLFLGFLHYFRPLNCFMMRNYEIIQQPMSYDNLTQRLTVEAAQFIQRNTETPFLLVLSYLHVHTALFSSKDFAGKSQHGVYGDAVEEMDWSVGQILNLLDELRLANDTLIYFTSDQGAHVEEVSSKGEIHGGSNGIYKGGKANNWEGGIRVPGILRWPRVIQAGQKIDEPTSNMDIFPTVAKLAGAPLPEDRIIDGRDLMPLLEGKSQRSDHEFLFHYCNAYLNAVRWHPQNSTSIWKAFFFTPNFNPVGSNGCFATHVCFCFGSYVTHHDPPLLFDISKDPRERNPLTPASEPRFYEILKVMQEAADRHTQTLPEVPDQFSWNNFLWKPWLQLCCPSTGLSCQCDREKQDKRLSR
# Method: VCaP cells were treated with 5 μM of different STSi, and STS activity was measured by microtiter plate cellular assay using fluorescence readout.
# To evaluate the ability of STSi in inhibition of STS enzymatic activity, VCaP prostate cancer cells were treated with two synthesized STSi and STS enzymatic activity was measured. The activity assay was carried as described by Wolff, et al. (Anal Biochem, 2003. 318(2): p. 276-284). […] FIG. 3 shown the effects of other STSi on STS enzymatic activity in VCaP cells.
# VCaP tumors = experiment: Castration relapsed VCaP xenograft tumor model; details: for Ki67 expression in relapsed VCaP tumors, single agent / tumor growth, single agent (combination study): enzalutamide 25 mg/Kg p.o. or Si-1 25 mg/Kg i.p.
# Method: Tumor volumes were determined twice weekly.
# VCaP tumors were allowed to develop in intact SCID mice and the animals were castrated after tumors reached 80-100 mm^3 of size. […] Tumor proliferation and AR expression by IHC was also examined.
# The VCaP tumor model was then used to validate the efficacy of combination therapy.
# AR [1] = experiment: PSA-luciferase reporter assay (AR transcriptional activity) in VCaP cells; assay type: cell-based
# Method: (§1) The sensitivity of prostate cancer cells to STS inhibitors was tested using cell growth assays and clonogenic assays. Quantitative reverse transcription-PCR, and Western blotting were performed to detect expression levels of STS and AR. […] Steroid profile including DHEA and androgens was analyzed by Liquid Chromatography-Mass Spectrometry (LC-MS). STS activity was determined by 4-Methylumbelliferyl sulfate assay through a fluorescence microtiter plate reader. PSA secretion was determined by ELISA and PSA-luciferase activity was measured by reporter assay.
# (§2) The AR expression was also determined by western blot.
# [2] = system: MCF-7, MDA-MB-468 and MDA-MB-231 cells; experiment: Breast cancer cell growth (cell numbers counted); assay type: cell-based; details: different doses, 48 hrs
# AR [3] = experiment: AR expression by western blot in VCaP cells; details: 3 days; for AR expression: western blot, 25 μM Si-1 or Si-2 or 20 μM enzalutamide alone
# Method: as §1, §2
# VCaP cells = experiment: VCaP cell growth with or without enzalutamide; details: 3 days; for VCaP cell growth, single agent: 10 μM or 25 μM Si-1 or Si-2, or 20 μM enzalutamide
# [4] = system: C4-2B, LNCaP, DU145, PC3, CWR22rv1 and VCaP cells; experiment: Prostate cancer cell growth assay (cell numbers counted)
# Wnt5A = Wnt5A expression by Western blot in C4-2B MDVR cells; assay type: cell-based; details: C4-2B MDVR cell lysates, different concentrations
# CWR22Rv1 = CWR22Rv1 cell number with Nic-S with or without enzalutamide or abiraterone acetate; assay type: cell-based
# CWR22-rv1 tumors = CWR22-rv1 tumors in mice, combination treatment with Nic-S and enzalutamide
# [5] = cited from earlier work
# [6] = in vivo; cited from earlier work
smiles,measurement,setting,value
CCN(C(=O)C1=CCC2C3CCc4cc(OS(N)(=O)=O)ccc4C3CCC12C)C(C)C (stereo not drawn) [Si-1],STS activity,STS,inhibited
same,AR staining / tumor AR expression in VCaP tumors (IHC),"VCaP tumors; 25 mg/kg/d i.p., 3 weeks",significantly suppressed
same,Ki67 staining in VCaP tumors (IHC),"VCaP tumors; 25 mg/kg/d i.p., 3 weeks",less
same,tumor suppression compared with control,"VCaP tumors; 25 mg/kg/d i.p., 3 weeks",around 60%
same,relapsed VCaP tumor growth / tumor progression,"VCaP tumors; 25 mg/kg/d i.p., castrated mice, 3 weeks",significantly suppressed; also recorded: significantly diminished
same,decrease of serum PSA,"VCaP tumors; 3 weeks of treatment, control group 300 ng/mL PSA, ELISA",50%
same,"Ki67 expression in relapsed VCaP tumors, combination with enzalutamide","VCaP tumors; IHC, Si-1 plus enzalutamide",further lowered
same,"Ki67 expression in relapsed VCaP tumors, single agent",VCaP tumors; IHC,significantly decreased
same,"tumor growth, combined with enzalutamide","VCaP tumors; Si-1 25 mg/Kg i.p. plus enzalutamide 25 mg/Kg p.o., 3 weeks",further suppressed
same,"tumor weight, single agent (combination study)","VCaP tumors; Si-1 25 mg/Kg i.p., 3 weeks",significantly suppressed
same,tumor weight,"VCaP tumors; after 3 weeks treatment, 25 mg/kg/d i.p.",significantly decreased
same,mice body weight,"VCaP tumors; compared with control group, 25 mg/kg/d i.p.",not affected
same,"tumor growth, single agent (combination study)",VCaP tumors; 3 weeks,significantly suppressed
same,AR transcriptional activity,AR [1],significantly suppressed
same,breast cancer cell growth (cell numbers),[2],inhibits cell growth in a dose dependent manner
same,"AR expression, combination with enzalutamide",AR [3]; 25 μM Si-1 or Si-2 with 20 μM enzalutamide,completely suppressed
same,AR expression,AR [3],significantly suppressed; also recorded: significantly decreased
same,"VCaP cell growth, single agent",VCaP cells,reduced
same,"VCaP cell numbers, combination with enzalutamide",VCaP cells; Si-1 or Si-2 with 20 μM enzalutamide,further reduced
same,growth of C4-2B and VCaP cells,[4]; C4-2B and VCaP cells,inhibited
same,cell growth (cell numbers),"[4]; increasing doses, 48 hrs, C4-2B, LNCaP, DU145, PC3, CWR22rv1 and VCaP cells",inhibited cell growth in a dose dependent manner
"NS(=O)(=O)Oc1ccc(Cl)cc1C(=O)Nc1ccc([N+](=O)[O-])cc1Cl [Niclosamide sulfamate, niclosamide sulfamate]",Wnt5A expression,Wnt5A,inhibit
same,Wnt5A expression,Wnt5A; listed as Nic-S,suppresses
same,enhancement of Enza/AA treatment,CWR22Rv1; 0.5 μM Nic-S with 20 μM enzalutamide or 5 μM abiraterone acetate,synergistically enhances
same,enhancement of enzalutamide treatment in vitro,"CWR22Rv1; 0.5 μM Nic-S with 20 μM enzalutamide, 3 and 5 days",synergistically enhance
same,toxicity,CWR22-rv1 tumors; body weight of mice bearing CWR22-rv1 tumors,without obvious toxicity
same,enhancement of enzalutamide treatment in vivo,"CWR22-rv1 tumors; tumor volume, mice bearing CWR22-rv1 tumors",synergistically enhance
"O=C(Nc1ccc([N+](=O)[O-])cc1Cl)c1cc(Cl)ccc1O [Niclosamide, 2′,5-dichloro-4′-nitrosalicylanilide]",solubility,[5],low
same,oral bioavailability,[6],low
"CNC(=O)c1ccc(N2C(=S)N(c3ccc(C#N)c(C(F)(F)F)c3)C(=O)C2(C)C)cc1F [enzalutamide, reference compound]","Ki67 expression in relapsed VCaP tumors, single agent",VCaP tumors; IHC,did not affect
same,"tumor growth, single agent (combination study)",VCaP tumors; 3 weeks,only slighted delayed
same,AR expression,AR [3],decreased
same,"VCaP cell growth, single agent",VCaP cells,slightly suppressed
